Measured values taken from ChEMBL document CHEMBL1156829 (Proc Natl Acad Sci U S A, 2008).
pEC50: −log10 of the molar value. Peptide text beside a SMILES is read from it. * marks the point of attachment. Boc = CC(C)(C)OC(=O)*; OBn = c1ccc(CO*)cc1

Assays:
Plasmodium falciparum [1] = test: NOVARTIS: Inhibition of Plasmodium falciparum 3D7 (drug-susceptible) proliferation in erythrocyte-based infection assay; assay type: functional, organism-based; settings: Plasmodium falciparum, 3D7
Plasmodium falciparum [2] = test: NOVARTIS: Inhibition of Plasmodium falciparum W2 (drug-resistant) proliferation in erythrocyte-based infection assay; assay type: functional, organism-based; settings: Plasmodium falciparum, W2; read-out: EC50
[3] = NOVARTIS: Cytotoxicity against human hepatocellular carcinoma cell line (Huh7); assay type: toxicity, cell-based, Huh-7; settings: Huh7 cells (hepatocellular carcinoma cell line)

Structure (SMILES) | pEC50 (Plasmodium falciparum [1]) | pEC50 (Plasmodium falciparum [2]) | CC50 [3] [µM]
Clc1cccc(CNC2CCN(CCc3ccccc3)CC2)c1 | 6.53 | 6.10 | 3.04
CCN(CC)c1nc(S)nc(NC(C)(C)C)n1 | < 4.90 | < 5.06 | > 100
CC(C)c1ccc(NC(=O)c2ccc(NCCCN(C)Cc3ccccc3)c([N+](=O)[O-])c2)cc1 | 5.60 | 5.49 | > 100
CCC(C(=O)N1CCN(Cc2ccccc2)CC1)c1ccccc1 (stereo not drawn) | 5.16 | 6.17 | > 100
CCOc1ccc2c(c1)c1nnc(-c3ccc4c(c3)OCO4)c-1cn2Cc1ccc(Cl)cc1 | 5.08 | 5.30 | 14.6
C=CC1CN2CCC1CC2[C@@H](OC(=O)c1ccc(OC)cc1)c1ccnc2ccccc12 (stereo partly drawn) | 6.51 | 6.29 | 87.1
O=C1C2CN(C(=O)Nc3ccccc3)C(c3ccc(Cl)cc3)C2C(=O)N1c1ccccc1 (stereo not drawn) | < 5.90 | < 6.02 | > 10
COc1cccc(CNc2ncnc3sc(C(=O)NCC4COCCO4)c(C)c23)c1OC (stereo not drawn) | < 4.90 | 5.46 | > 100
CC1OC(=O)C(C(C)C)NC(=O)C(C(C)C)OC(=O)C(C(C)C)NC(=O)C(C)OC(=O)C(C(C)C)NC(=O)C(C(C)C)OC(=O)C(C(C)C)NC(=O)C(C)OC(=O)C(C(C)C)NC(=O)C(C(C)C)OC(=O)C(C(C)C)NC1=O (stereo not drawn) | 7.04 | 7.93 | > 10
Cc1ccc(Cn2c(C)c3cnn(CC(=O)O)c(=O)c3c2C)cc1 | < 5.05 | 6.03 | > 100
COc1cc(C2CC(=O)NC(C)=C2C(=O)OC(C)C)c(OC)cc1Br (stereo not drawn) | 5.99 | 6.62 | > 100
COc1ccc2nc(C)cc(Nc3ccc(Oc4ccc5ccccc5c4Cl)c(Cl)c3)c2c1 | 7.00 | 6.31 | 64.1
CCCNC1=C(N(C(C)=O)c2ccc(C)cc2)C(=O)c2ccccc2C1=O | 7.89 | 7.88 | 4.33
CC(C)(C)C(=O)Nc1ccc(C23CC4CC(CC(c5ccccc5)(C4)C2)C3)cc1 | 6.15 | < 4.90 | > 100
COc1ccc([N+](=O)[O-])cc1N(CC1CO1)S(=O)(=O)c1ccc(C)cc1 (stereo not drawn) | < 4.90 | 5.18 | > 100
CCCCCCCC[n+]1c(C)n(CC)c2ccc(Cl)cc21 | 6.86 | 6.62 | 54.9
Fc1ccc(N2CCN(c3ncnc4c3cnn4-c3ccccc3)CC2)cc1 | < 4.90 | 5.42 | > 100
CC(C)CNC(=O)c1cnc(NCCC2CCCN2C)nc1NCC1CCCCC1 (stereo not drawn) | 6.04 | < 5.90 | > 10
COc1ccc2cc(CNC3CCN(Cc4ccccc4)CC3)c(=O)[nH]c2c1 | 6.17 | 6.07 | > 65.9
CCC(CC)CN1CCC(O)(c2ccc3oc(C(=O)Nc4ccc(OC)c(OC)c4)cc3c2)CC1 | 6.46 | 6.44 | > 85.9
O=C(NC1CCN(CC(O)CN(Cc2ccccc2)S(=O)(=O)c2ccccc2)C1)c1ccsc1 (stereo not drawn) | 6.92 | > 8.06 | > 10
CC(C)CC(NC(=O)OC(C)(C)C)C(=O)NC(Cc1ccccc1)C(=O)OCc1ccccc1 (stereo not drawn) (Boc-Leu-Phe-OBn; configuration not given here) | < 4.90 | 5.53 | > 100

Structure (SMILES) | pEC50 (Plasmodium falciparum [1]) | pEC50 (Plasmodium falciparum [2]) | CC50 [3] [µM]
CCOC(=O)c1cnc2ccc3c(c(C)c(C)n3C)c2c1O | 6.43 | 6.43 | > 10
C[n+]1cccc2ccc3cccnc3c21 | 7.18 | 6.85 | > 8.03
COc1ccc(-c2cnc3ccc(NC4CCOCC4)nn23)cc1OC | < 6.03 | < 5.79 | > 10
CCN(CC)CCCN(Cc1cc2cc3c(cc2[nH]c1=O)OCCO3)C(=S)Nc1cccc(Cl)c1 | 5.93 | 6.05 | 21.2
CC1=C(C(=O)Nc2ccc(C)cc2C)C(c2cc(Br)ccc2F)n2ncc(C(=O)Nc3ccc(C)cc3)c2N1 (stereo not drawn) | 5.59 | 6.07 | > 100
CCC(C)NCC(O)(c1ccc(Cl)cc1)c1ccc(Cl)cc1 (stereo not drawn) | 6.19 | 6.73 | 46.3
C=CCn1c(COc2ccccc2C)nnc1SCC(=O)O | < 4.90 | 5.98 | > 100
COc1ccc(OCC(=O)Nc2cccc(-c3nc4ncccc4o3)c2)cc1 | 5.83 | 6.03 | > 100
O=S(=O)(NCCCCNc1ccnc2cc(Cl)ccc12)c1cc(Cl)ccc1Cl | 6.41 | 6.47 | > 10.7
CC1C/C(=C/c2ccncc2)C(=O)/C(=C/c2ccncc2)C1 (stereo not drawn) | 5.92 | 6.00 | > 10
Cc1c(Cl)cccc1NCC(=O)NN=C1CCCC1 | < 5.90 | < 6.02 | > 10
COc1ccccc1C(=O)ON=C(N)Cc1cccc2ccccc12 | 6.45 | 6.67 | 49.6
COCC(=O)NCc1ccc(OC2CCN(CC(c3ccccc3)c3ccccc3)CC2)cc1 | 6.34 | > 7.78 | > 10
CN(C)c1ccc(/C=C/C(=O)NC(=O)c2ccccc2OC(=O)c2ccccc2)cc1 | 6.62 | 6.58 | > 10
CC(C)OC(=O)NC(Nc1ccccc1)C(Cl)(Cl)Cl (stereo not drawn) | < 5.97 | < 5.97 | > 10
FC(F)(F)c1ccccc1CN1CCc2nc(N3CCCCC3)sc2C1 | 6.60 | 6.64 | > 10
CC[C@@H](C(=O)[C@@H](C)C(O)[C@H](C)CCc1ccc(C)c(O)c1C(=O)O)C1O[C@](CC)(C2CC[C@](O)(CC)[C@H](C)O2)C[C@@H]1C (stereo partly drawn) | 6.27 | 6.50 | > 10
Clc1ncnc2ncn(Cc3ccccc3)c12 | 5.78 | 5.96 | 58.1
CCN(CC)CCNC(=O)c1cc(-c2ccc(Cl)cc2)cc(-n2cnnn2)c1 | 6.19 | > 7.58 | > 10
c1ccc(CN2CCC(Nc3ncnc4cc(-c5ccccc5)sc34)CC2)cc1 | 5.69 | 5.31 | > 100
Cc1cccc(NC(c2cccc(Cl)c2)c2ccc3cccnc3c2O)n1 (stereo not drawn) | 6.04 | 6.05 | > 62.4
COc1ccc(C2=C(Nc3ccc4oc5ccccc5c4c3)c3ccccc3C2=O)cc1 | 6.85 | 7.00 | > 100

Structure (SMILES) | pEC50 (Plasmodium falciparum [1]) | pEC50 (Plasmodium falciparum [2]) | CC50 [3] [µM]
CC(C)(c1ccc(Oc2ccc(NC(=O)c3ccccc3)cc2)cc1)c1cccc(Oc2ccc(NC(=O)c3ccccc3)cc2)c1 | 5.81 | 5.75 | > 10
CCOc1cccc(Nc2cc(C)nc3ncnn23)c1 | 6.17 | 6.14 | > 100
CCc1nc2ccc(NC(=O)c3ccncc3)cc2c(=O)n1Cc1cccc(OC)c1 | 5.81 | 6.37 | > 0.57
CCOc1ccccc1-n1c(SCC(=O)c2ccc(Cl)cc2)nc2[nH]ncc2c1=O | < 4.90 | 5.40 | 73
Nc1noc2cccc(OC3CCNCC3)c12 | 5.99 | > 7.61 | > 10
Nc1nonc1-n1nnc(C(=O)NN=Cc2cccc(Cl)c2)c1-c1ccccc1 | 6.37 | 6.36 | > 100
O=C(NN=Cc1ccc(O)cc1O)c1ccncc1 | 5.32 | 5.73 | > 100
CC(C)OC(=O)CSc1nnc(CNc2nc(-c3ccccc3)cs2)n1C | 5.86 | 5.86 | > 100
O=C(NCCCCCCCCNC(=O)Nc1ccc(C2=NCCN2)cc1)Nc1ccc(C2=NCCN2)cc1 | 7.07 | 7.34 | > 10
COc1cccc(-c2nc(CS(=O)(=O)CC(=O)N3CC(C)CC(C)C3)c(C)o2)c1 (stereo not drawn) | 6.87 | < 5.90 | > 10
CS[C@H]1SC[C@H]2C(=O)N(C)[C@@H](C(C)C)C(=O)OC[C@@H](NC(=O)c3cnc4ccccc4n3)C(=O)N[C@@H](C)C(=O)N(C)[C@@H]1C(=O)N(C)[C@@H](C(C)C)C(=O)OC[C@@H](NC(=O)c1cnc3ccccc3n1)C(=O)N[C@@H](C)C(=O)N2C [ECHINOMYCIN] | 7.13 | 6.28 | > 10
O=C(NC(=C(Cl)Cl)[P+](c1ccccc1)(c1ccccc1)c1ccccc1)c1ccc(F)cc1 | 6.02 | 6.77 | 1.74
Cc1nc(Cl)cc(N2CCc3c(nc(N4CC(C)OC(C)C4)[nH]c3=O)C2)n1 (stereo not drawn) | 6.76 | < 5.90 | > 10
CCN1CCN(c2c(C(=O)c3ccccc3)cnc3cc(OC)c(OC)cc23)CC1 | 5.52 | 5.91 | > 100
Cc1cc(C(=O)Nc2cnn(Cc3ccc(Cl)cc3Cl)c2)no1 | 6.21 | 6.43 | > 100
CCc1ccc(C(C)=NNc2nc(O)cc(-c3ccccc3)n2)cc1 | 5.75 | < 5.84 | > 10
COc1ccc(C(=NO)C2CC2c2ccc(Cl)cc2)cc1 (stereo not drawn) | 6.13 | 6.18 | > 10
CCOC(=O)C1=C(N)N(c2cccc([N+](=O)[O-])c2)C2=C(C(=O)CC(C)(C)C2)C1c1ccc(Br)cc1 (stereo not drawn) | 5.90 | 6.82 | > 100
CCOC(=O)C1=C(C)NC2=C(C(=O)C(C(=O)OCC)C(c3ccccc3OC)C2)C1c1ccc(Cl)cc1 (stereo not drawn) | 5.27 | 6.00 | > 100
CCCCCc1ccc(-c2ccc(/C(C=[N+](C)C)=C\N(C)C)cc2)cc1 | 6.22 | 5.98 | > 10
COc1cccc(NC(=O)Cn2c(C)c(C#N)c3ccccc32)c1 | 7.10 | 6.98 | > 100
CC(=O)Nc1ccc2c(c1)C(=O)N(C(C(=O)NCC(=O)O)C1CC1)[C@@H](CCC(=O)O)C(=O)N2 (stereo partly drawn) | 5.90 | 6.55 | > 10
